Measurements published in ChEMBL document CHEMBL1144896 (2003).

Each compound was assayed on BJ (assay: hTERT-SEAP (Human telomerase reverse transcriptase-SEAP) activity in immortalized hTERT-BJI at 230.0 uM concentration and level of cell viability determined in MTT assay).
Type: functional
Compound CCCCCC(=O)Oc1cccc2c1C(=O)c1cccc(OC(=O)CCCCC)c1C2=O has a Relative viability of 62%.

These compounds were tested on BJ (assay: hTERT-SEAP (Human telomerase reverse transcriptase-SEAP) activity in immortalized hTERT-BJI at 2.2 uM concentration and level of cell viability determined in MTT assay).
Type: functional
O=C1c2cccc(SCc3ccccc3)c2C(=O)c2cccc(SCc3ccccc3)c21 showed a Relative viability of 121%.
Work on Nc1ccc(Sc2cccc3c2C(=O)c2cccc(Sc4ccc(N)cc4)c2C3=O)cc1 yielded a Relative viability of 86%.
With Nc1cccc(Sc2cccc3c2C(=O)c2cccc(Sc4cccc(N)c4)c2C3=O)c1 the Relative viability was 104%.
O=C1c2cccc(SCCc3ccccc3)c2C(=O)c2cccc(SCCc3ccccc3)c21 was tested, and the Relative viability was 91%.
In the case of Cc1ccc(Sc2cccc3c2C(=O)c2cccc(Sc4ccc(C)cc4)c2C3=O)cc1, the Relative viability was 111%.

These compounds were tested on NCI-H1299 (assay: hTERT-SEAP (Human telomerase reverse transcriptase-SEAP) activity in non-small cell lung cancer H1299 cell at 23 uM concentration and level of cell viability determined in MTT assay).
Type: functional
In the case of CCCCCC(=O)Oc1cccc2c1C(=O)c1cccc(OC(=O)CCCCC)c1C2=O, the Relative viability was 114%.

Each compound was assayed on NCI-H1299 (assay: Compound was tested for human telomerase reverse transcriptase-SEAP (hTERT-SEAP) activity in non-small cell lung cancer H1299 cell at 230.0 uM concentration).
Type: functional
For CCCCCC(=O)Oc1cccc2c1C(=O)c1cccc(OC(=O)CCCCC)c1C2=O, the “Relative SEAP activity” value was 95%.

What follows are compounds tested on BJ (assay: Compound was tested for human telomerase reverse transcriptase-SEAP (hTERT-SEAP) activity in immortalized hTERT-BJI at 220.0 uM concentration).
Type: functional
With O=C1c2cccc(SCc3ccccc3)c2C(=O)c2cccc(SCc3ccccc3)c21 the “Relative SEAP activity” value was 87%.
With Nc1ccc(Sc2cccc3c2C(=O)c2cccc(Sc4ccc(N)cc4)c2C3=O)cc1 the “Relative SEAP activity” value was 26%.
Nc1cccc(Sc2cccc3c2C(=O)c2cccc(Sc4cccc(N)c4)c2C3=O)c1 was tested, and the “Relative SEAP activity” value was 8%.
O=C1c2cccc(SCCc3ccccc3)c2C(=O)c2cccc(SCCc3ccccc3)c21 was tested, and the “Relative SEAP activity” value was 110%.
Cc1ccc(Sc2cccc3c2C(=O)c2cccc(Sc4ccc(C)cc4)c2C3=O)cc1 was tested, and the “Relative SEAP activity” value was 87%.

The compounds below were run on BJ (assay: hTERT-SEAP (Human telomerase reverse transcriptase-SEAP) activity in immortalized hTERT-BJI at 220.0 uM concentration and level of cell viability determined in MTT assay).
Type: functional
In the case of O=C1c2cccc(SCc3ccccc3)c2C(=O)c2cccc(SCc3ccccc3)c21, the Relative viability was 47%.
Work on Nc1cccc(Sc2cccc3c2C(=O)c2cccc(Sc4cccc(N)c4)c2C3=O)c1 yielded a Relative viability of 4%.
O=C1c2cccc(SCCc3ccccc3)c2C(=O)c2cccc(SCCc3ccccc3)c21 gave a Relative viability of 35%.
For Cc1ccc(Sc2cccc3c2C(=O)c2cccc(Sc4ccc(C)cc4)c2C3=O)cc1, the Relative viability was 22%.

These compounds were tested on NCI-H1299 (assay: Compound was tested for human telomerase reverse transcriptase-SEAP (hTERT-SEAP) activity in non-small cell lung cancer H1299 cell at 23 uM concentration).
Type: functional
CCCCCC(=O)Oc1cccc2c1C(=O)c1cccc(OC(=O)CCCCC)c1C2=O was tested, and the “Relative SEAP activity” value was 95%.

These compounds were tested on BJ (assay: hTERT-SEAP (Human telomerase reverse transcriptase-SEAP) activity in immortalized hTERT-BJI at 23 uM concentration and level of cell viability determined in MTT assay).
Type: functional
Work on CCCCCC(=O)Oc1cccc2c1C(=O)c1cccc(OC(=O)CCCCC)c1C2=O yielded a Relative viability of 98%.

These compounds were tested on NCI-H1299 (assay: Compound was tested for human telomerase reverse transcriptase-SEAP (hTERT-SEAP) activity in non-small cell lung cancer H1299 cell at 2.3 uM concentration).
Type: functional
CCCCCC(=O)Oc1cccc2c1C(=O)c1cccc(OC(=O)CCCCC)c1C2=O was tested, and the “Relative SEAP activity” value was 91%.

What follows are compounds tested on NCI-H1299 (assay: hTERT-SEAP (Human telomerase reverse transcriptase-SEAP) activity in non-small cell lung cancer H1299 cell at 2.2 uM concentration and level of cell viability determined in MTT assay).
Type: functional
O=C1c2cccc(SCc3ccccc3)c2C(=O)c2cccc(SCc3ccccc3)c21 showed a Relative viability of 83%.
Work on Nc1ccc(Sc2cccc3c2C(=O)c2cccc(Sc4ccc(N)cc4)c2C3=O)cc1 yielded a Relative viability of 103%.
Compound Nc1cccc(Sc2cccc3c2C(=O)c2cccc(Sc4cccc(N)c4)c2C3=O)c1 has a Relative viability of 92%.
In the case of O=C1c2cccc(SCCc3ccccc3)c2C(=O)c2cccc(SCCc3ccccc3)c21, the Relative viability was 93%.
With Cc1ccc(Sc2cccc3c2C(=O)c2cccc(Sc4ccc(C)cc4)c2C3=O)cc1 the Relative viability was 84%.

These compounds were tested on NCI-H1299 (assay: hTERT-SEAP (Human telomerase reverse transcriptase-SEAP) activity in non-small cell lung cancer H1299 cell at 220.0 uM concentration and level of cell viability determined in MTT assay).
Type: functional
Compound O=C1c2cccc(SCc3ccccc3)c2C(=O)c2cccc(SCc3ccccc3)c21 has a Relative viability of 34%.
With Nc1ccc(Sc2cccc3c2C(=O)c2cccc(Sc4ccc(N)cc4)c2C3=O)cc1 the Relative viability was 42%.
For Nc1cccc(Sc2cccc3c2C(=O)c2cccc(Sc4cccc(N)c4)c2C3=O)c1, the Relative viability was 32%.
O=C1c2cccc(SCCc3ccccc3)c2C(=O)c2cccc(SCCc3ccccc3)c21 gave a Relative viability of 27%.
With Cc1ccc(Sc2cccc3c2C(=O)c2cccc(Sc4ccc(C)cc4)c2C3=O)cc1 the Relative viability was 25%.

The compounds below were run on BJ (assay: Compound was tested for human telomerase reverse transcriptase-SEAP (hTERT-SEAP) activity in immortalized hTERT-BJI at 2.2 uM concentration).
Type: functional
O=C1c2cccc(SCc3ccccc3)c2C(=O)c2cccc(SCc3ccccc3)c21 was tested, and the “Relative SEAP activity” value was 117%.
In the case of Nc1ccc(Sc2cccc3c2C(=O)c2cccc(Sc4ccc(N)cc4)c2C3=O)cc1, the “Relative SEAP activity” value was 97%.
With Nc1cccc(Sc2cccc3c2C(=O)c2cccc(Sc4cccc(N)c4)c2C3=O)c1 the “Relative SEAP activity” value was 118%.
For O=C1c2cccc(SCCc3ccccc3)c2C(=O)c2cccc(SCCc3ccccc3)c21, the “Relative SEAP activity” value was 119%.
For Cc1ccc(Sc2cccc3c2C(=O)c2cccc(Sc4ccc(C)cc4)c2C3=O)cc1, the “Relative SEAP activity” value was 132%.

Each compound was assayed on BJ (assay: Compound was tested for human telomerase reverse transcriptase-SEAP (hTERT-SEAP) activity in immortalized hTERT-BJI at 22 uM concentration).
Type: functional
O=C1c2cccc(SCc3ccccc3)c2C(=O)c2cccc(SCc3ccccc3)c21 was tested, and the “Relative SEAP activity” value was 112%.
For Nc1ccc(Sc2cccc3c2C(=O)c2cccc(Sc4ccc(N)cc4)c2C3=O)cc1, the “Relative SEAP activity” value was 97%.
With Nc1cccc(Sc2cccc3c2C(=O)c2cccc(Sc4cccc(N)c4)c2C3=O)c1 the “Relative SEAP activity” value was 41%.
For O=C1c2cccc(SCCc3ccccc3)c2C(=O)c2cccc(SCCc3ccccc3)c21, the “Relative SEAP activity” value was 109%.
Cc1ccc(Sc2cccc3c2C(=O)c2cccc(Sc4ccc(C)cc4)c2C3=O)cc1 was tested, and the “Relative SEAP activity” value was 109%.

The compounds below were run on NCI-H1299 (assay: hTERT-SEAP (Human telomerase reverse transcriptase-SEAP) activity in non-small cell lung cancer H1299 cell at 230.0 uM concentration and level of cell viability determined in MTT assay).
Type: functional
CCCCCC(=O)Oc1cccc2c1C(=O)c1cccc(OC(=O)CCCCC)c1C2=O gave a Relative viability of 106%.

These compounds were tested on NCI-H1299 (assay: Compound was tested for human telomerase reverse transcriptase-SEAP (hTERT-SEAP) activity in non-small cell lung cancer H1299 cell at 22 uM concentration).
Type: functional
With O=C1c2cccc(SCc3ccccc3)c2C(=O)c2cccc(SCc3ccccc3)c21 the “Relative SEAP activity” value was 100%.
In the case of Nc1ccc(Sc2cccc3c2C(=O)c2cccc(Sc4ccc(N)cc4)c2C3=O)cc1, the “Relative SEAP activity” value was 95%.
With Nc1cccc(Sc2cccc3c2C(=O)c2cccc(Sc4cccc(N)c4)c2C3=O)c1 the “Relative SEAP activity” value was 109%.
O=C1c2cccc(SCCc3ccccc3)c2C(=O)c2cccc(SCCc3ccccc3)c21 was tested, and the “Relative SEAP activity” value was 102%.
In the case of Cc1ccc(Sc2cccc3c2C(=O)c2cccc(Sc4ccc(C)cc4)c2C3=O)cc1, the “Relative SEAP activity” value was 103%.

The compounds below were run on NCI-H1299 (assay: Compound was tested for human telomerase reverse transcriptase-SEAP (hTERT-SEAP) activity in non-small cell lung cancer H1299 cell at 2.2 uM concentration).
Type: functional
O=C1c2cccc(SCc3ccccc3)c2C(=O)c2cccc(SCc3ccccc3)c21 was tested, and the “Relative SEAP activity” value was 97%.
In the case of Nc1ccc(Sc2cccc3c2C(=O)c2cccc(Sc4ccc(N)cc4)c2C3=O)cc1, the “Relative SEAP activity” value was 100%.
With Nc1cccc(Sc2cccc3c2C(=O)c2cccc(Sc4cccc(N)c4)c2C3=O)c1 the “Relative SEAP activity” value was 106%.
In the case of O=C1c2cccc(SCCc3ccccc3)c2C(=O)c2cccc(SCCc3ccccc3)c21, the “Relative SEAP activity” value was 108%.
In the case of Cc1ccc(Sc2cccc3c2C(=O)c2cccc(Sc4ccc(C)cc4)c2C3=O)cc1, the “Relative SEAP activity” value was 117%.

What follows are compounds tested on NCI-H1299 (assay: hTERT-SEAP (Human telomerase reverse transcriptase-SEAP) activity in non-small cell lung cancer H1299 cell at 2.3 uM concentration and level of cell viability determined in MTT assay).
Type: functional
With CCCCCC(=O)Oc1cccc2c1C(=O)c1cccc(OC(=O)CCCCC)c1C2=O the Relative viability was 117%.

Each compound was assayed on BJ (assay: hTERT-SEAP (Human telomerase reverse transcriptase-SEAP) activity in immortalized hTERT-BJI at 22 uM concentration and level of cell viability determined in MTT assay).
Type: functional
Compound O=C1c2cccc(SCc3ccccc3)c2C(=O)c2cccc(SCc3ccccc3)c21 has a Relative viability of 98%.
In the case of Nc1ccc(Sc2cccc3c2C(=O)c2cccc(Sc4ccc(N)cc4)c2C3=O)cc1, the Relative viability was 65%.
Nc1cccc(Sc2cccc3c2C(=O)c2cccc(Sc4cccc(N)c4)c2C3=O)c1 was tested, and the Relative viability was 9%.
O=C1c2cccc(SCCc3ccccc3)c2C(=O)c2cccc(SCCc3ccccc3)c21 gave a Relative viability of 54%.
With Cc1ccc(Sc2cccc3c2C(=O)c2cccc(Sc4ccc(C)cc4)c2C3=O)cc1 the Relative viability was 77%.

What follows are compounds tested on NCI-H1299 (assay: Compound was tested for human telomerase reverse transcriptase-SEAP (hTERT-SEAP) activity in non-small cell lung cancer H1299 cell at 220.0 uM concentration).
Type: functional
With O=C1c2cccc(SCc3ccccc3)c2C(=O)c2cccc(SCc3ccccc3)c21 the “Relative SEAP activity” value was 100%.
For Nc1ccc(Sc2cccc3c2C(=O)c2cccc(Sc4ccc(N)cc4)c2C3=O)cc1, the “Relative SEAP activity” value was 84%.
For Nc1cccc(Sc2cccc3c2C(=O)c2cccc(Sc4cccc(N)c4)c2C3=O)c1, the “Relative SEAP activity” value was 101%.
In the case of O=C1c2cccc(SCCc3ccccc3)c2C(=O)c2cccc(SCCc3ccccc3)c21, the “Relative SEAP activity” value was 97%.
Cc1ccc(Sc2cccc3c2C(=O)c2cccc(Sc4ccc(C)cc4)c2C3=O)cc1 was tested, and the “Relative SEAP activity” value was 90%.

The compounds below were run on BJ (assay: Compound was tested for human telomerase reverse transcriptase-SEAP (hTERT-SEAP) activity in immortalized hTERT-BJI at 230.0 uM concentration).
Type: functional
For CCCCCC(=O)Oc1cccc2c1C(=O)c1cccc(OC(=O)CCCCC)c1C2=O, the “Relative SEAP activity” value was 124%.

The compounds below were run on BJ (assay: Compound was tested for human telomerase reverse transcriptase-SEAP (hTERT-SEAP) activity in immortalized hTERT-BJI at 23 uM concentration).
Type: functional
In the case of CCCCCC(=O)Oc1cccc2c1C(=O)c1cccc(OC(=O)CCCCC)c1C2=O, the “Relative SEAP activity” value was 149%.

The compounds below were run on NCI-H1299 (assay: hTERT-SEAP (Human telomerase reverse transcriptase-SEAP) activity in non-small cell lung cancer H1299 cell at 22 uM concentration and level of cell viability determined in MTT assay).
Type: functional
For O=C1c2cccc(SCc3ccccc3)c2C(=O)c2cccc(SCc3ccccc3)c21, the Relative viability was 44%.
For Nc1ccc(Sc2cccc3c2C(=O)c2cccc(Sc4ccc(N)cc4)c2C3=O)cc1, the Relative viability was 76%.
Nc1cccc(Sc2cccc3c2C(=O)c2cccc(Sc4cccc(N)c4)c2C3=O)c1 showed a Relative viability of 68%.
O=C1c2cccc(SCCc3ccccc3)c2C(=O)c2cccc(SCCc3ccccc3)c21 was tested, and the Relative viability was 51%.
Compound Cc1ccc(Sc2cccc3c2C(=O)c2cccc(Sc4ccc(C)cc4)c2C3=O)cc1 has a Relative viability of 41%.
